Test results reported in ChEMBL document CHEMBL1126693, “Long-chain-substituted uric acid and 5,6-diaminouracil derivatives as novel agents against free radical processes: synthesis and in vitro activity” (J Med Chem, 1993).
The source made the active and inactive calls. The calls are words filed in the database; no cut-off is given here.

What was measured:
[1] = Partition coefficient (logP); type: physicochemical; conditions: octanol/water
Bos taurus [2] = organism: Bos taurus; assay: Antioxidant activity in bovine heart mitochondria using iron(II) / dihydroxy fumaric acid (DHF); type: functional
[3] = Inhibition time for 20 uM during peroxidation of liposomal suspension of dilinoleoylphosphatidylcholine (DPLC) indicated by DMVN at 40 degree Centigrade
[4] = Inhibition time for 20 uM during peroxidation of methyl linoleate / DMVN in TBA /methanol medium at 40 degree Centigrade
[5] = Reducing activity to scavenge 10 uM 1, 1-diphenylpicrylhydrazyl (DPPH); type: functional
Bos taurus [6] = organism: Bos taurus; assay: Tested for antioxidant activity using bovine heart mitochondria and iron(II) / dihydroxy fumaric acid (DHF) at 100 uM; type: functional
[7] = Inhibition time for 20 uM during peroxidation of liposomal suspension of dilinoleoylphosphatidylcholine (DPLC) indicated by DMVN at 40 degree centigrade; inactive
Bos taurus [8] = organism: Bos taurus; assay: Tested for antioxidant activity using bovine heart mitochondria and iron(II) / dihydroxy fumaric acid (DHF); type: functional
[9] = Inhibition against peroxidation of liposomal suspension of dilinoleoylphosphatidylcholine (DPLC) indicated by DMVN at 40 degree Centigrade
[10] = Percent inhibition at 100 uM against peroxidation of methyl linoleate / DMVN in TBA /methanol medium at 40 degree Centigrade
[11] = Reducing activity to scavenge 10 uM 1, 1-diphenylpicrylhydrazyl (DPPH); inactive; type: functional
[12] = Inhibition time for 20 uM during peroxidation of methyl linoleate / DMVN in TBA /methanol medium at 40 degree centigrade; inactive
[13] = Percent inhibition at 100 uM against peroxidation of liposomal suspension of dilinoleoylphosphatidylcholine (DPLC) indicated by DMVN at 40 degree Centigrade

SMILES | IC50 (Bos taurus [2]) [nM] | T inh [4] [s] | T inh [3] [s] | RC10 [5] [µM] | inhibition (Bos taurus [6]) [%] | further results
CCCCCCCCCCCCn1c(=O)[nH]c(N)c(N)c1=O | 260 | 144 | 4200 | 5.5 |  | 
CCCCCCn1c(=O)[nH]c(=O)c2[nH]c(O)nc21 |  |  |  | 4.5 | 26 | logP [1]: -0.02
CCCCCCCCn1c(N)c(N)c(=O)[nH]c1=O | 620 | 114 | 3350 | 6.5 |  | logP [1]: 2.05
CCCCCCn1c(N)c(N)c(=O)[nH]c1=O |  | 105 | 2010 | 6.5 |  | logP [1]: 1.01; IC50 (Bos taurus [8]): 3500 nM
CCCCCCCCCCCCn1c(=O)cc(N)[nH]c1=O |  |  |  |  | 1 | 
CCCCCCCCCCCCNc1nc(O)nc(O)c1N | 300 | 105 | 3500 | 6.4 |  | 
Cn1c(O)nc2[nH]c(=O)[nH]c(=O)c21 |  |  |  | 20 | 20 | 
CCCCCCCCCCn1c(=O)[nH]c(=O)c2[nH]c(O)nc21 | 3700 |  |  | 3.5 |  | logP [1]: 2.04; IC50 [9]: 22000 nM; inhibition [10]: 8%
O=c1[nH]c(=O)c2[nH]c(=O)[nH]c2[nH]1 [URIC ACID] |  |  |  |  |  | logP [1]: -2.91
Cn1c(=O)[nH]c(=O)c2c1[nH]c(=O)n2C |  |  |  |  | 5 | RC10 [11]: inactive
CCCCCCCCCCCCNc1cc(O)nc(O)n1 |  |  |  |  | 2 | T inh [7]: inactive; T inh [12]: inactive; RC10 [11]: inactive
CCCCCCCCCCCCn1c(=O)n(C)c(=O)c2c1n(C)c(=O)n2C |  |  |  |  | 5 | inhibition [13]: 0.5%; inhibition [10]: 0.7%; RC10 [11]: inactive
CCCCCCCCn1c(=O)[nH]c(=O)c2[nH]c(O)nc21 | 28000 |  |  | 6.5 |  | logP [1]: 1.1; IC50 [9]: 37000 nM; inhibition [10]: 15%
Cn1c(=O)[nH]c2[nH]c(=O)n(C)c2c1=O |  |  |  | 14 | 14 | 
Oc1nc(O)c2nc(O)[nH]c2n1 |  |  |  | 4.5 | 5 | inhibition [13]: 0.5%; inhibition [10]: 7%
Cn1c(=O)[nH]c2c(=O)[nH]c(=O)[nH]c21 |  |  |  | 5 | 9 | 
Cn1c(=O)[nH]c(=O)c2[nH]c(O)nc21 |  |  |  | 3.5 | 11 | inhibition [10]: 10%
Cn1c(=O)c2[nH]c(=O)[nH]c2n(C)c1=O |  |  |  | 3.5 | 36 | 
Cn1c(=O)[nH]c2[nH]c(=O)[nH]c2c1=O |  |  |  | 4.5 | 10 | inhibition [10]: 13%
CCCCCCCCCCn1c(N)c(N)c(=O)[nH]c1=O | 280 | 114 | 3700 | 5.6 |  | logP [1]: 3.04

Now from value to compound, other results behind:

IC50 (Bos taurus [2]) [nM] | T inh [4] [s] | SMILES | T inh [3] [s] | RC10 [5] [µM] | inhibition (Bos taurus [6]) [%] | further results
82000 | 156 | Cn1c(N)c(N)c(=O)[nH]c1=O | 800 | 4.5 |  | logP [1]: -1.4
 | 190 | Cc1c(C)c2c(c(C)c1O)CC[C@@](C)(CCC[C@H](C)CCC[C@H](C)CCCC(C)C)O2 |  | 6 | 46 | T inh [7]: inactive
850 |  | CCCCCCCCCCCCn1c(=O)n(C)c(=O)c2[nH]c(O)nc21 |  | 3 |  | IC50 [9]: 18000 nM; inhibition [10]: 15%
670 |  | CCCCCCCCCCCCNc1c(N)n(Cc2ccccc2)c(=O)[nH]c1=O |  | 6.5 |  | 
570 | 84 | CCCCCCCCCCCCNc1c(N)nc(O)nc1O | 6000 | 4.5 |  | 
240 | 126 | CCCCCCCCCCCCn1c(N)c(N)c(=O)n(C)c1=O | 3150 | 5 |  | 
1600 |  | CCCCCCCCCCCCn1c(=O)[nH]c(=O)c2[nH]c(O)nc21 |  | 3.2 |  | logP [1]: 2.9
750 |  | CCCCCCCCCCCCCCCCn1c(O)nc2c(=O)[nH]c(=O)[nH]c21 |  | 4.5 |  | IC50 [9]: 8000 nM; inhibition [10]: 10%
50000 |  | Cn1c(=O)[nH]c(N)c(N)c1=O |  | 6 |  | 
100000 |  | Nc1[nH]c(=O)[nH]c(=O)c1N |  | 7 |  | logP [1]: -1.92
1600 |  | CCCCCCCCCCCCn1c(O)nc2[nH]c(=O)[nH]c(=O)c21 |  | 27 |  | IC50 [9]: 200000 nM; inhibition [10]: 10%
22000 | 114 | CCCCCCCCCCCCCCCCCCNc1[nH]c(=O)n(C)c(=O)c1N | 1750 | 6.2 |  | 
270 | 102 | CCCCCCCCCCCCn1c(N)c(N)c(=O)[nH]c1=O | 3350 | 7 |  | 
5000 | 195 | Cc1c(C)c2c(c(C)c1O)CCC(C)(C(=O)O)O2 (centres undefined) [TROLOX] | 15000 | 3.7 |  | 
1000 |  | CCCCCCCCCCCCn1c(O)nc2c(=O)[nH]c(=O)[nH]c21 |  | 6.2 |  | IC50 [9]: 11000 nM; inhibition [10]: 13%
1250 |  | CCCCCCCCCCCCn1c(=O)[nH]c2[nH]c(O)nc2c1=O |  | 5.2 |  | IC50 [9]: 10000 nM; inhibition [10]: 25%
900 | 150 | CCCCCCCCCCCCCCCCNc1nc(O)nc(O)c1N | 2020 | 6.4 |  | 
